Drawing on US11230545B2, “Heterocyclic compound” (Takeda Pharmaceutical Company Limited, priority 2018, dated 2022), this text covers inhibition for 17 compounds.

One assay concerns the target T1, recombinant human MALT1 (Homo sapiens, UniProt Q9UDY8).
T1 construct: to form a human MALT1 (340-789aa) dimer; His tag (from pET28a, N-terminal) (N); yeast GCN4 leucine zipper (251-281aa), fusion partner for dimerisation (N); translates to GSGSGS), between GCN4 zipper and MALT1 (N); His tag (C-terminal) (C); made in house; host or cells: E. coli BL21 (DE3)
Put plainly: Measurement of MALT1 enzyme inhibitory activity. It counts as biochemical. The conditions noted are these: read-out: MALT1 enzyme inhibition rate (%) at 3 μM compound. The method, then:
On the human MALT1 gene, PCR was carried out using GC-030-[…] (pENTR221/MALT1, GeneCopoeia) as a template with primers having BamH I restriction enzyme at the N-terminal and Not I restriction enzyme at the C-terminal to form a human MALT1 (340-789aa) dimer. […] Both of the obtained fragments were treated with the restriction enzymes, and inserted between Nde I and Not I of a pET28a (Novagen) vector to yield a recombinant human MALT1 protein expression vector pET28a/His-LZ-hMALT1v1 (340-789)-His. The recombinant human MALT1 protein was prepared by transforming the expression plasmid prepared as above with ECOS Competent E. coli BL21 (DE3) (Nippon Gene Co., Ltd.). Escherichia coli obtained by transformation was inoculated into 300 mL of LB medium (1% tryptone, 0.5% yeast extract, 0.5% sodium chloride, 0.01% ampicillin) and cultured at 30° C. for 16 hours. […] Furthermore, culturing was carried out for 16 hours to induce expression of human MALT1 protein. After completion of the culture, the culture solution was centrifuged at 5,000 rpm for 10 minutes. […] This crushed liquid was centrifuged (15,300×G, 30 min, TOMY MX-301), and the obtained supernatant was passed through and adsorbed to a Ni-NTA Superflow (QIAGEN) column previously equilibrated with 50 mM Tris-HCl pH 8.0, 300 mM NaCl, 5 mM DTT and 10% glycerol, followed by elution in a buffer containing 50 mM Tris-HCl pH 8.0, 300 mM NaCl, 5 mM DTT, 10% glycerol and 250 mM imidazole. […] The prepared protein was stored at -30° C., and the protein concentration was measured with a BCA Protein Assay Kit (PIERCE) using BSA as a standard. […] Subsequently, 2 μL of a purified recombinant human MALT1 enzyme solution was added, followed by incubation for 60 minutes at room temperature. To the mixture were added 2 μL of a substrate solution (75 μM Ac-LRSR-AFC (SM Biochemicals), 20 mM HEPES (Dojin Laboratories), 10 mM KCl (Wako Pure Chemical Industries, Ltd.), 1.5 mM MgCl2 (Sigma-Aldrich), 1 mM EDTA (pH 8.0) (Nippon Gene Co., Ltd.), 0.01% Triton X-100 (Sigma-Aldrich) and 1 mM DTT (Wako Pure Chemical Industries, Ltd.), followed by incubation for 60 minutes at room temperature. The fluorescence values of excitation 400 nm and emission 485 nm immediately after substrate addition and after enzymatic reaction were measured with a plate reader Envision (PerkinElmer), and the fluorescence values increased by enzymatic reaction were used for calculation of the inhibition rate (%).

The subject of another assay is OCI-Ly3 cells. Put plainly: Measurement of growth inhibitory activity using OCI-Ly3 cells. It counts as cell-based. The conditions noted are these: Homo sapiens, 144 h, 3 μm compound, 6 days, read-out: Cell growth inhibition rate (%) at 3 μm compound. The method, then: OCI-Ly3 cells were seeded in a cell culture medium IMDM (Fujifilm Wako Pure Chemical Corporation) containing 20% FCS (fetal calf serum, Thermo Fisher Scientific) and monothioglycerol (Fujifilm Wako Pure Chemical Corporation) so as to be at 1.25×10^3 cells/well on a 96-well plate. Cell Titer-Glo solution (Promega) was added to cells to which the test compound had not been added, followed by stirring at room temperature for 15 minutes. Subsequently, the luminescence value was measured with Envision (PerkinElmer) on the day of seeding. Cells to which the test compound dissolved in dimethyl sulfoxide (Fujifilm Wako Pure Chemical Corporation) had been added were allowed to stand in a CO2 incubator (37° C.) for 6 days. Subsequently, the luminescence value was measured in the same manner. The inhibition rate (%) of the test compound on OCI-Ly3 cell growth was calculated by the following formula. Cell growth inhibition rate (%)=(1−(Luminescent value on day 6 of test compound treatment−Luminescent value before test compound treatment)/(Luminescent value on day 6 without compound addition−Luminescent value before compound treatment))×100

As a reminder, the inhibition is the drop in the measured response relative to a control, in per cent.

T1 sequence (Q9UDY8 340-789): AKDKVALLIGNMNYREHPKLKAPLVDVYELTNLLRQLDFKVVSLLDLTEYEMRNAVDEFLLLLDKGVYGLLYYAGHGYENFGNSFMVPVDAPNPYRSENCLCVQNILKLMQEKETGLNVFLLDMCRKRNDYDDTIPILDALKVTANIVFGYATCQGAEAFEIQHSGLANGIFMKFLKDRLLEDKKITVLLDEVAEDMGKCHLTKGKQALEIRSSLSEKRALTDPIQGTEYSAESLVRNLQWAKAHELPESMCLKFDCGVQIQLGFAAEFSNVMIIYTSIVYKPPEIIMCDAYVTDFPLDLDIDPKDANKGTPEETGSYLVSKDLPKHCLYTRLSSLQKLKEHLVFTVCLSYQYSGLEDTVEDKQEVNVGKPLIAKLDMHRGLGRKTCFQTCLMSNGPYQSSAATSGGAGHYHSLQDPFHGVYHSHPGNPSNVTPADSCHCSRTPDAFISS
T1 sequence (P03069 251-281 partner limits assumed): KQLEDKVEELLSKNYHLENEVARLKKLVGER

In the case of `CO[C@@H](C)c1c(NC(=O)Nc2cnc(OC(F)F)c(C#N)c2)cnn2cc(C)nc12` [Example 5, (S)—N-(5-Cyano-6-(difluoromethoxy)pyridin-3-yl)-N′-(8-(1-methoxyethyl)-2-methylimidazo[1,2-b]pyridazin-7-yl)urea], the inhibition at 3 µM on recombinant human MALT1 was determined as 99%; in the assay on OCI-Ly3 cells, 93%.
The matching figures for `CO[C@@H](C)c1c(NC(=O)Nc2cnc(-n3nccn3)c(C(F)(F)F)c2)cnn2cc(C)nc12` [Example 6, (S)—N-(8-(1-Methoxyethyl)-2-methylimidazo[1,2-b]pyridazin-7-yl)-N′-(6-(2H-1,2,3-triazol-2-yl)-5-(trifluoromethyl)pyridin-3-yl)urea]: 108% and 99%.
For `COC(C)(C)c1c(NC(=O)Nc2cnc(-n3nccn3)c(Cl)c2)cnn2cc(C)nc12` [Example 7, N-(5-Chloro-6-(2H-1,2,3-triazol-2-yl)pyridin-3-yl)-N′-(8-(2-methoxypropan-2-yl)-2-methylimidazo[1,2-b]pyridazin-7-yl)urea] the same measures were 98% and 95%.
Turning to `CC(C)c1c(NC(=O)Nc2cnc(OC(F)F)c(Cl)c2)cnn2cc(Cl)nc12` [Example 8, N-(5-Chloro-6-(difluoromethoxy)pyridin-3-yl)-N′-(2-chloro-8-(propan-2-yl)imidazo[1,2-b]pyridazin-7-yl)urea], the inhibition at 3 µM at recombinant human MALT1 worked out at 94%.
For the compound `Cc1cn2ncc(NC(=O)Nc3cnc(-n4nccn4)c(Cl)c3)c(C(C)C)c2n1` [Example 9, N-(5-Chloro-6-(2H-1,2,3-triazol-2-yl)pyridin-3-yl)-N′-(2-methyl-8-(propan-2-yl)imidazo[1,2-b]pyridazin-7-yl)urea], the inhibition at 3 µM on recombinant human MALT1 and with OCI-Ly3 cells was 99% in each case.
Turning to `CO[C@@H](C)c1c(NC(=O)Nc2cc(C(F)(F)F)c(-n3nccn3)nc2C)cnn2cc(C)nc12` [Example 22, (S)-N-(8-(1-Methoxyethyl)-2-methylimidazo[1,2-b]pyridazin-7-yl)-N′-(2-methyl-6-(2H-1,2,3-triazol-2-yl)-5-(trifluoromethyl)pyridin-3-yl)urea], the inhibition at 3 µM came out at 104% at recombinant human MALT1 and 102% in the assay with OCI-Ly3 cells.
For `CO[C@@H](C)c1c(NC(=O)Nc2cnc(-n3nccn3)c(C(F)F)c2)cnn2cc(C)nc12` [Example 31, (S)-N-(5-(Difluoromethyl)-6-(2H-1,2,3-triazol-2-yl)pyridin-3-yl)-N′-(8-(1-methoxyethyl)-2-methylimidazo[1,2-b]pyridazin-7-yl)urea] the same measures were 103% and 96%.
Turning to `CO[C@@H](C)c1c(NC(=O)Nc2cnc(OC(F)F)c(Br)c2)cnn2cc(C)nc12` [Example 35, (S)-N-(5-Bromo-6-(difluoromethoxy)pyridin-3-yl)-N′-(8-(1-methoxyethyl)-2-methylimidazo[1,2-b]pyridazin-7-yl)urea], the inhibition at 3 µM at recombinant human MALT1 was 105%; with OCI-Ly3 cells it was 95%.
For the compound `COCc1cnn(-c2ncc(NC(=O)Nc3cnn4cc(C)nc4c3[C@H](C)OC)cc2Cl)n1` [Example 36, (S)-N-[5-Chloro-6-(4-(methoxymethyl)-2H-1,2,3-triazol-2-yl)pyridin-3-yl)-N′-(8-(1-methoxyethyl)-2-methylimidazo[1,2-b]pyridazin-7-yl)urea], the inhibition at 3 µM was 101% on recombinant human MALT1 and 96% in the assay with OCI-Ly3 cells.
The matching figures for `COC(C)c1c(NC(=O)Nc2cnc(OC(F)F)c(Cl)c2)cnc2ccc(Cl)nc12` (stereo not drawn) [Example 59, N-(5-Chloro-6-(difluoromethoxy)pyridin-3-yl)-N′-(6-chloro-4-(1-methoxyethyl)-1,5-naphthyridin-3-yl)urea]: 95% and 98%.
As to `CO[C@@H](C)c1c(NC(=O)Nc2cc(C(F)(F)F)c(-n3nccn3)nc2C)cnc2ccc(Cl)nc12` [Example 66, (S)-N-(6-Chloro-4-(1-methoxyethyl)-1,5-naphthyridin-3-yl)-N′-(2-methyl-6-(2H-1,2,3-triazol-2-yl)-5-(trifluoromethyl)pyridin-3-yl)urea], the inhibition at 3 µM at recombinant human MALT1 is 99%; with OCI-Ly3 cells it was 100%.
For the compound `COC(C)c1c(NC(=O)Nc2cnc(-n3nccn3)c(Cl)c2)cnn2cc(Cl)nc12` (stereo not drawn) [Example 133, N-(2-Chloro-8-(1-methoxyethyl)imidazo[1,2-b]pyridazin-7-yl)-N′-(5-chloro-6-(2H-1,2,3-triazol-2-yl)pyridin-3-yl)urea], the inhibition at 3 µM stood at 99% on recombinant human MALT1 and 98% with OCI-Ly3 cells.
For `CC(c1c(NC(=O)Nc2cnc(OC(F)F)c(Cl)c2)cnn2cc(Cl)nc12)C(F)(F)F` (stereo not drawn) [Example 173, N-(5-Chloro-6-(difluoromethoxy)pyridin-3-yl)-N′-(2-chloro-8-(1,1,1-trifluoropropan-2-yl)imidazo[1,2-b]pyridazin-7-yl)urea] the same measures were 99% and 85%.
The matching figures for `COc1nccc2ncc(NC(=O)Nc3cnc(-n4nccn4)c(C(F)(F)F)c3)c(C(C)OC)c12` (stereo not drawn) [Example 255, N-(5-Methoxy-4-(1-methoxyethyl)-1,6-naphthyridin-3-yl)-N'-(6-(2H-1,2,3-triazol-2-yl)-5-(trifluoromethyl)pyridin-3-yl)urea]: 97% and 99%.
The matching figures for `COC(C)c1c(NC(=O)Nc2cnc(-n3nccn3)c(C(F)(F)F)c2)cnc2ccnc(C)c12` (stereo not drawn) [Example 261, N-(4-(1-Methoxyethyl)-5-methyl-1,6-naphthyridin-3-yl)-N'-(6-(2H-1,2,3-triazol-2-yl)-5-(trifluoromethyl)pyridin-3-yl)urea]: 98% and 88%.
`COC(C)c1c(NC(=O)Nc2cnc(-n3nccn3)c(C(F)(F)F)c2)cnc2ccc(=O)n(C)c12` (stereo not drawn) [Example 269, N-(4-(1-Methoxyethyl)-5-methyl-6-oxo-5,6-dihydro-1,5-naphthyridin-3-yl)-N'-(6-(2H-1,2,3-triazol-2-yl)-5-(trifluoromethyl)pyridin-3-yl)urea]: the inhibition at 3 µM on recombinant human MALT1 worked out at 99%; in the assay on OCI-Ly3 cells it was 95%.
For `COc1ncc(NC(=O)Nc2cnc3ccn(C)c(=O)c3c2C(C)OC)cc1Cl` (stereo not drawn) [Example 270, N-(5-Chloro-6-methoxypyridin-3-yl)-N'-(4-(1-methoxyethyl)-6-methyl-5-oxo-5,6-dihydro-1,6-naphthyridin-3-yl)urea] the same measures were 94% and 40%.
